Test results from patent US9655878B2, “Composition comprising coumestrol or a bean extract containing coumestrol” (AMOREPACIFIC CORPORATION, priority 2010, dated 2017).

Legend:
[1] = system: 3T3-L1 mouse preadipocytes; assay: Inhibition of adipocyte differentiation, Oil Red O staining of triglycerides; assay type: cell-based; parameters: dose or concentration left out as unconfirmed; details: coumestrol administered continuously, about 7 days differentiation; compared with rosiglitazone and berberine
Experimental: (§1) In order to evaluate the coumestrol's effect of inhibiting adipocyte differentiation, […] coumestrol (CMS) was administered continuously while 3T3-L1 mouse preadipocytes (CL-173, ATCC) were differentiated into adipocytes. […] Rosiglitazone (Rosi), which is known to promote adipocyte differentiation, was used as positive control and […] berberine (BBR), which is known to inhibit adipocyte differentiation, was used as negative control. On the day when adipocyte differentiation was started and on days 2, 4 and 6, the test substance was administered and the medium was changed. The adipocyte differentiation was carried out for about 7 days when the adipocyte differentiation was completed in the positive control group.
Then, differentiation of adipocytes was identified by staining triglycerides in the cells with Oil Red O (Sigma).

[2] = system: aP2, Acrp30, PPAR, SREBP1c and FAS mRNA in adipocytes; assay: Expression of adipocyte-specific genes by Q-PCR; assay type: cell-based, mouse; parameters: dose or concentration left out as unconfirmed; details: coumestrol, relative to untreated group
Experimental: as §1
Also, expression of adipocyte-specific genes in the in the adipocytes was investigated by Q-PCR. The genes tested were aP2 (fatty acid binding protein 4, adipocyte specific type), Acrp30 (adiponectin), PPAR (peroxisome proliferator-activated receptor), SREBP1c (sterol regulatory element binding protein 1c) and FAS (fatty acid synthase), which are used as molecular markers of adipocyte differentiation and fatty acid synthesis.

mouse spleen cells = assay: Immune cell proliferating activity (CCK-8); assay type: cell-based, ICR mouse; details: 44 hours, relative to untreated group (100)
Experimental: Spleen was aseptically removed from an ICR mouse sacrificed by cervical dislocation. The spleen was washed with an RPMI 1640 solution and lightly smashed with a sterilized glass rod to isolate the mouse spleen cells. A suspension of the isolated cells was passed through a 200-mesh stainless steel sieve (Sigma Chemical Co., St. Louis, Mo., USA) and centrifuged for 10 minutes at 4° C. and 3,000 rpm in a 50-mL centrifuge tube. The resulting cell pellets were suspended in a lysing buffer (Tris-buffered ammonium chloride; 0.87% NH4Cl, pH 7.2) for 5 minutes to remove red blood cells. The cells were washed twice with RPMI by centrifugal washing, diluted to 5.0×10^6 cells/mL in 10%-FBS RPMI 1640, and seeded on a 96-well plate, with 90 μL per each well, for measurement of cell proliferating activity. After preparing a stock solution such that the final concentration of coumestrol was 0.1 or 1 μM and adding 10 μL to each well, the cells were cultured for 44 hours and the proliferating activity of the spleen cells was measured (CCK-8, Dojindo Laboratories, Japan). 10 μL of 10 μg/mL LPS was used as positive control.

[3] = system: Human umbilical vein endothelial cells (HUVECs); assay: Nicotine detoxifying effect, viability of vascular endothelial cells; assay type: cell-based; details: HUVEC, 25 mM nicotine, 24 hours, relative to untreated group, nicotine only 55.1
Experimental: Human umbilical vein endothelial cells (HUVECs, CRL-2873, ATCC) were used to evaluate the coumestrol's effect against nicotine which is a major toxic substance included in cigarettes. HUVECs were cultured under the condition of 37° C. and 5% CO2 using the microvascular endothelial cell growth medium-2 (EGM-2). The cells were seeded onto a 96-well plate, with 2×10^4 cells per well, and cultured for about 24 hours in a medium containing 10% FBS until ˜80% confluency. After treating with nicotine to a final concentration of 25 mM, the cells were cultured for 24 hours with 0.1, 1 or 10 μM coumestrol, except for the negative control group.

SH-SY5Y cells [4] = assay: cells; assay type: cell-based; details: Homo sapiens, read-out: Viability of nerve cells (%)
Experimental: (§2) SH-SY5Y cells (CRL-2266, ATCC) were used to evaluate the coumestrol's effect of protecting nerve cells from neurotoxins. The cells were cultured in a medium comprising 90% DMEM, 10% fetal calf serum, 100 IU/mL penicillin and 100 μg/mL streptomycin under the condition of 37° C. and 5% CO2. When the cells grew confluent, they were harvested with trypsin, diluted on a 96-well plate to 1×10^4 cells per well, and then grafted onto a culture dish. 24 hours later, after treating the cultured cells with 0.01, 0.1 or 1 μM coumestrol, the cells were treated with 50 μM 6-OHDA 2 hours later to induce cytotoxicity. A negative control group was treated only with 50 μM 6-OHDA. Also, mitochondrial potential of the cells was measured using the JC-1 fluorescent reagent (Beyotime, China).

SH-SY5Y cells [5] = assay: Inhibition of decline of mitochondrial potential (JC-1); assay type: cell-based; details: 50 μM 6-OHDA, negative control 0
Experimental: as §2

SH-SY5Y cells [6] = assay: Scavenging of reactive oxygen species produced by 6-OHDA (DCFH-DA); assay type: cell-based; details: 50 μM 6-OHDA, 6 hours, relative to negative control
Experimental: The same cells used in Test Example 4-1 were cultured under the same condition. The cultured cells were treated with 0.01, 0.1 or 1 μM coumestrol and then treated with 50 μM 6-OHDA 2 hours later to induce increase of reactive oxygen species (ROS) in the cells. After culturing the cells for 6 hours in an incubator, the quantity of ROS in the cells was measured using DCFH-DA and the decrease of the ROS was evaluated relative to the negative control group. The fluorescence intensity of DCF was measured with the Wallac VICTOR2 fluorometer (Wallac, Turku, Finland) at excitation wavelength of 485 nm and emission wavelength of 530 nm. ROS scavenging effect (%) relative to the negative control group was calculated from the measured fluorescence intensity.

[7] = cited from earlier work

Structure (SMILES): O=c1oc2cc(O)ccc2c2oc3cc(O)ccc3c12 [Coumestrol, 3,9-dihydroxy-6H-benzofuro(3,2-c)(1)benzopyran-6-one]
- adipocyte differentiation (Oil Red O stained area) [1]: remarkably decreased
- mRNA expression of the molecular markers of adipocyte differentiation and fatty acid synthesis [2]: remarkably decreased
- activity at 0.1 µM (mouse spleen cells; 0.1 μM): 278%
- activity at 1 µM (mouse spleen cells; 1 μM): 283%
- viability at 0.1 µM ([3]; 0.1 μM): 67.2%
- viability at 1 µM ([3]; 1 μM): 72.2%
- viability at 10 µM ([3]; 10 μM): 88.9%
- viability at 0.01 µM (SH-SY5Y cells [4]): 94.4%
- viability at 0.1 µM (SH-SY5Y cells [4]): 96.5%
- viability at 1 µM (SH-SY5Y cells [4]): 98.2%
- Effect of inhibiting decline of mitochondrial potential (%) (SH-SY5Y cells [5]; 0.01 μM): 13.2%
- Effect of inhibiting decline of mitochondrial potential (%) (SH-SY5Y cells [5]; 0.1 μM): 29.1%
- Effect of inhibiting decline of mitochondrial potential (%) (SH-SY5Y cells [5]; 1 μM): 43.0%
- ROS scavenging effect (%) (SH-SY5Y cells [6]; 0.01 μM): 73.0%
- ROS scavenging effect (%) (SH-SY5Y cells [6]; 0.1 μM): 86.7%
- ROS scavenging effect (%) (SH-SY5Y cells [6]; 1 μM): 93.5%
- bioavailability upon oral administration [7]: about 11.7%
